Values quoted from earlier work in patent publication US20130280259A1, “USE OF ANTIBODIES AGAINST NK1, NK2 AND/OR NK3 RECEPTORS IN CANCER TREATMENT” (SERVICIO ANDALUZ DE SALUD, priority 2010, published 2013).

Test system: advanced pancreatic cancer, advanced gastric cancer, glioblastoma, breast cancer
Details: breast cancer after first-line chemotherapy (Procc ASCO 1999-2002); cited from earlier work

CNC(=O)[C@@H](NC(=O)[C@H](CC(C)C)[C@H](O)C(=O)NO)C(C)(C)C [Marimastat]
Efficacy for the treatment of cancer: effective
